In patent publication US7589123B2, “Chemical compounds” (Phytopharm PLC, priority 2006, dated 2009):

Tests used:
TRPV1 receptor [1] = target: T1, TRPV1 receptor (Rattus norvegicus, UniProt O35433); assay: TRPV1 receptor modulation in the rat vas deferens, EFS-induced contraction (Assay 1); settings: electrical field stimulation, read-out: Inhibition of EFS response relative to capsaicin
Procedure: Wistar derived male rats (275±25 g) were suppressed by CO2 overexposure. The vas deferens was removed, placed in Krebs solution, pH 7.4 (composition in g/l: NaCl 6.89, KCl 0.35, CaCl2 0.277, KH2PO4 0.163, MgSO4.7H2O 0.296, NaHCO3 2.1 glucose 1.8) and excess fat and connective tissue removed. The portion of the vas deferens closest to the prostate was cut in half and each half was placed under 1 g tension in a 10 ml bath containing Krebs solution at 32° C. The tissue was contracted by electrical field stimulation (EFS; 60% of maximum stimulation, 0.015 Hz, 0.5 ms in duration) and contractile responses were measured.

TRPV1 receptor [2] = target: T1, TRPV1 receptor; assay: TRPV1 modulation in DRG neurones: CGRP release in absence and presence of capsaicin (Assay 2); format: cell-based; parameters: The culture used for this experiment contained sensory neurones, Schwann cells and fibroblasts; endogenous in cells; host or cells: primary rat DRG sensory neurone culture (with Schwann cells and fibroblasts); settings: 20 min; for inhibition at 3 µM: 3 μM with capsaicin 1 μM; for inhibition at 3 µM / inhibition at 30 µM: −ve: inhibition, +ve: potentiation of capsaicin response, read-out: Effect of test compounds on capsaicin (1 μM)-induced CGRP release (%); for inhibition at 30 µM: 30 μM with capsaicin 1 μM; for Emax at 3 µM: test compound alone 3 μM; for Emax at 3 µM / Emax at 30 µM: rat DRG sensory neurones, read-out: CGRP release (% of capsaicin (1 μM) response); for Emax at 30 µM: test compound alone 30 μM
[3] = tested on: ovalbumin-sensitised guinea pigs; assay: Ovalbumin-sensitised guinea pigs, a model of asthma in vivo (Assay 7); parameters: species or system guinea pig; settings: oral gavage 30 mg/kg/day for 7 days
Procedure: Dunkin-Hartley guinea pigs were sensitised to ovalbumin using two interperitoneal injections of ovalbumin (20 μg) in Al(OH)3 gel (1.65 mg) on days 1 and 11. On day 25 compound 2 was administered by oral gavage (30 mg/kg/day) for 7 days. On day 31, approximately 2 h after the last administration of compound 2, each guinea pig was anaesthetised with urethane (1750 mg/kg, i.p.) and artificially ventilated via a tracheal cannula connected to a Fleisch pneumotachograph (size 00) and a differential pressure transducer (±2 cm H2O; PT5, Grass Astro-Med Inc., USA). Total pulmonary resistance (RL) was calculated online by integration of flow, tidal volume and transpulmonary pressure. Pulmonary resistance was recorded for approximately 5 min before ovalbumin (300 μg/ml, i.v) challenge and for approximately 15 min following ovalbumin challenge and was recorded in real time using a computer data acquisition system (Po-ne-Mah, USA).

[4] = tested on: ovalbumin-sensitised mice; assay: Ovalbumin-sensitised mice, a chronic model of asthma in vivo (Assay 8); settings: for methacholine-induced increase in penH (enhanced pause) / Increase in penH: day 54; for methacholine-induced increase in penH (enhanced pause): methacholine challenge 50 mg/kg; for methacholine-induced increase in penH (enhanced pause) / eosinophil infiltration into the lung / IL-13 concentrations in the BAL / amount of lung remodelling (histopathology grading): oral gavage 20 days: compound 2 3, compound 32 30, budesonide 1, montelukast 10 mg/kg/day; for eosinophil infiltration into the lung: day 55, BAL cytospins; for Eosinophil infiltration / IL-4 concentration / IL-13 concentration / Histopathology score / Increase in penH: mean ± s.e.mean, oral gavage 20 days: 2 3 mg/kg/day, 32 30 mg/kg/day, budesonide 1 mg/kg/day, montelukast 10 mg/kg/day; for Eosinophil infiltration / IL-4 concentration / IL-13 concentration: BAL fluid day 55; for Eosinophil infiltration: sensitised 192.1 ± 33.2; for IL-4 concentration: sensitised 231.2 ± 62.4; for IL-13 concentration: sensitised 241.9 ± 89.3; for Histopathology score: lung remodelling, sensitised 541.6 ± 36.1; for Increase in penH: methacholine challenge, sensitised 193.0 ± 61.7
Procedure: Mice (BALB/c from Harlan-Olac) were sensitised to ovalbumin using two interperitoneal injections of ovalbumin (10 μg) and alum (200 μl) on day 1 and 14 followed by a 20 min, daily exposure to a ovalbumin aerosol (5%) on days 19-23 and then a thrice weekly 20 min, exposure to a ovalbumin aerosol (5%) on days 24-55. […] On day 54, mice were placed in BUXCO four chamber whole body plethysmographs and breathing-associated pressure changes were recorded which were then used to calculate enhanced pause (penH), a measurement of airways resistance, in response to a methacholine challenge.
On day 55 the mice were killed and brochoalveolar lavage (BAL) fluid was collected and cytospins prepared to measure eosinophil infiltration. In addition, concentrations of interleukin-4 (IL-4) and interleukin-13 (IL-13) were measured in the BAL fluid. Furthermore, lung samples were taken, examined by a histopathologist and scored using a grading system to describe the degree of lung remodelling.

T1 sequence (O35433 whole entry): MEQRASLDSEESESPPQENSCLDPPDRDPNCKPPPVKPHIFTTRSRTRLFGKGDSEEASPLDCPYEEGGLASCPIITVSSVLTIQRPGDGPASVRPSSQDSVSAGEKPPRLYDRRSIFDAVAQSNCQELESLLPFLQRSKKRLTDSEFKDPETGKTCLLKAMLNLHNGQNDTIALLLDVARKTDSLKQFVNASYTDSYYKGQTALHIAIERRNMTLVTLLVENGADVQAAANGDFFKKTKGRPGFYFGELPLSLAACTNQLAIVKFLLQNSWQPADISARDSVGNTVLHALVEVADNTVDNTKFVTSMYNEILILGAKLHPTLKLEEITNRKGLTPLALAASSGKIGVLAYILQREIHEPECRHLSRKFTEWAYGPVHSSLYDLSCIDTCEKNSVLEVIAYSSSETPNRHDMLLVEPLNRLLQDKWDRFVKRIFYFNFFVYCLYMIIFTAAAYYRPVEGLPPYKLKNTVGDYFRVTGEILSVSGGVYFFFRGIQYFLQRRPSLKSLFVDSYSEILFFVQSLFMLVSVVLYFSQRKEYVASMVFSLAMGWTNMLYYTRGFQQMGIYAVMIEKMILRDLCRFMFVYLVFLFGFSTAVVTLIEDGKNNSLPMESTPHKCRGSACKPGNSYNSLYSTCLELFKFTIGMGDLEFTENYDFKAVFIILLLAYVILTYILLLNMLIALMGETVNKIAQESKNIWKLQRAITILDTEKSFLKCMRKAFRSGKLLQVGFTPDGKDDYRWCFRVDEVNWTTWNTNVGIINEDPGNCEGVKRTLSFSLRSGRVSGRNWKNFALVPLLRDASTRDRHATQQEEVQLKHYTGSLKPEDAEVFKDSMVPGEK

SMILES | Emax (TRPV1 receptor [1]) | inhibition at 3 µM (TRPV1 receptor [2]) | inhibition at 30 µM (TRPV1 receptor [2]) | Emax at 3 µM (TRPV1 receptor [2]) | Emax at 30 µM (TRPV1 receptor [2]) | increase in pulmonary resistance following ovalbumin exposure ([3]; ovalbumin 300 μg/kg i.v. challenge, vehicle control group 228±57%) | increase in pulmonary resistance compared with vehicle control ([3]; ovalbumin i.v. challenge) | methacholine-induced increase in penH (enhanced pause) [4] | eosinophil infiltration into the lung [4] | IL-13 concentrations in the BAL ([4]; day 55) | amount of lung remodelling (histopathology grading) ([4]; day 55) | Eosinophil infiltration [4] | IL-4 concentration [4] | IL-13 concentration [4] | Histopathology score ([4]; day 55) | Increase in penH [4] | IL-4 concentration in the BAL ([4]; day 55, oral gavage 20 days: compound 32 30, budesonide 1, montelukast 10 mg/kg/day)
COc1cc(CCC(=O)CC(=O)c2ccccc2)ccc1O [Compound 69, 5-(4-Hydroxy-3-methoxyphenyl)-1-phenyl-pentane-1,3-dione] | 38% | -49% | 23% | 49% | 36% | – | – | – | – | – | – | – | – | – | – | – | –
COc1cc(CCC(=O)C(C)C(=O)c2ccccc2)ccc1O (stereo not drawn) [Compound 11, 5-(4-Hydroxy-3-methoxy-phenyl)-2-methyl-1-phenyl-pentane-1,3-dione] | 68% | 8% | 12% | 24% | 111% | – | – | – | – | – | – | – | – | – | – | – | –
COc1cc(CCC(=O)CC(=O)C(C)(C)C)ccc1O [Compound 2, 6,6-Dimethyl-1-(4-hydroxy-3-methoxyphenyl)-heptane-3,5-dione] | 96% | -46% | -8% | 20% | 117% | 132±15% | significantly lower than vehicle control | decreased | reduced | reduced | reduced | 83.0 ± 10.8% of control | 238.2 ± 57.1% of control | 183.0 ± 60.9% of control | 450.0 ± 33.4% of control | 107.4 ± 21.5% of control | –
COc1cc(CCC(=O)CC(=O)C2(C)CC2)ccc1O [Compound 6, 5-(4-Hydroxy-3-methoxyphenyl)-1-(1-methylcyclopropyl)-pentane-1,3-dione] | 24% | 15% | 28% | 52% | 49% | – | – | – | – | – | – | – | – | – | – | – | –
COc1cc(CCC(=O)C(C)(C)C(=O)c2ccccc2)ccc1O [Compound 32, 2,2-Dimethyl-5-(4-hydroxy-3-methoxy-phenyl)-1-phenyl-pentane-1,3-dione] | – | 47% | 40% | 22% | 21% | – | – | decreased | reduced | reduced | reduced | 106.6 ± 19.9% of control | 168.0 ± 50.8% of control | 148.7 ± 88.4% of control | 339.3 ± 45.0% of control | 153.5 ± 29.0% of control | reduced
